As usually defined, the IC50 is the concentration that inhibits the measured activity by half. As usually defined, the melting point is the temperature, or range, at which the solid turns liquid.

Here are results for nine molecules from article PMC6100557, “Quinazolinone-Amino Acid Hybrids as Dual Inhibitors of EGFR Kinase and Tubulin Polymerization” (Molecules : A Journal of Synthetic Chemistry and Natural …, 2018).

Entries after “also recorded” stand apart in the source; their conditions may differ. Read-outs that look alike come from different tables or passages of the source.

Series [1] relates to MCF-7 and MDA-MBA-231 cells. Put plainly: Cytotoxic screening on the two cell lines, selectivity MCF-7 versus MDA-MBA-231. In kind it is cell-based. The note with it: for Selectivity Indices S1: S1 = IC50 (MCF-7)/IC50 (MDA-MBA-231); for Cell Line (type of selectivity): S1 > S2: more selective to MDA-MBA-231, S2 > S1: more selective to MCF-7; for Selectivity Indices S2: S2 = IC50 (MDA-MBA-231)/IC50 (MCF-7). As for the experimental part: (§1) Cells were cultured using reported culture media, incubated for 24 h, treated with different concentrations of tested derivatives and incubated for 48 h. MTT was added to extract the color, which was then measured by ELISA [12].

A further series has as its system MDA-MBA-231. Put plainly: In vitro cytotoxic screening (MTT assay), MDA-MBA-231. The class given is cell-based. Particulars: read-out: IC50 (µM) MDA-MBA-231. The protocol: as §1
(Formazan colour is commonly taken as a measure of viable cells.)

In another series the test system is MCF-7. Kind of series: In vitro cytotoxic screening (MTT assay), MCF-7. The class given is cell-based. The note with it: Homo sapiens, read-out: IC50 (µM) MCF-7. The protocol: as §1
The next series has as its target T1, porcine tubulin protein (Sus scrofa, UniProt P02550+P02554).
T1 construct: purchased Cytoskeleton Inc. BK006P
Put plainly: Tubulin polymerization inhibition assay (CytoDYNAMIX Screen kit). In kind it is biochemical. The note with it: absorbance 340 nm, 30 min, 37 °C.

A further series has as its target EGFR kinase (Homo sapiens, UniProt P00533). Put plainly: EGFR inhibition assay (HTScan EGFR kinase assay kit).
Setting [2] is: MTT assay, 48 h incubation, mean ± SD.
The mark [3] stands for this setting: MCF7, MTT assay, 48 h incubation, mean ± SD.

Sequence of EGFR kinase (P00533 672-1210 limits assumed): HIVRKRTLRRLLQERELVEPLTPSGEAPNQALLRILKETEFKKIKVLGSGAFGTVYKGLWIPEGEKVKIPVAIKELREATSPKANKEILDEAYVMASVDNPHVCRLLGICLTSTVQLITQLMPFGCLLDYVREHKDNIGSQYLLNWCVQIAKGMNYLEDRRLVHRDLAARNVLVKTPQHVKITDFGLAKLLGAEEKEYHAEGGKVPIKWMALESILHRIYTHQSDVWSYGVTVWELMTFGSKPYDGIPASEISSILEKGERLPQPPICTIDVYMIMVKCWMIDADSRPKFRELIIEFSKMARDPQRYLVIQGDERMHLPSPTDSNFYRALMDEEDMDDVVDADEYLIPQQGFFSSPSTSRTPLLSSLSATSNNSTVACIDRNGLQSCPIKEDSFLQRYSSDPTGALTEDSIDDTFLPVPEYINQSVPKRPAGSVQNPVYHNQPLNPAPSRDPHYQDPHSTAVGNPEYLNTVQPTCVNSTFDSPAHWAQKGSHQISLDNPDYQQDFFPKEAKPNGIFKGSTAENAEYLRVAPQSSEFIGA
T1 sequence (P02550 whole entry): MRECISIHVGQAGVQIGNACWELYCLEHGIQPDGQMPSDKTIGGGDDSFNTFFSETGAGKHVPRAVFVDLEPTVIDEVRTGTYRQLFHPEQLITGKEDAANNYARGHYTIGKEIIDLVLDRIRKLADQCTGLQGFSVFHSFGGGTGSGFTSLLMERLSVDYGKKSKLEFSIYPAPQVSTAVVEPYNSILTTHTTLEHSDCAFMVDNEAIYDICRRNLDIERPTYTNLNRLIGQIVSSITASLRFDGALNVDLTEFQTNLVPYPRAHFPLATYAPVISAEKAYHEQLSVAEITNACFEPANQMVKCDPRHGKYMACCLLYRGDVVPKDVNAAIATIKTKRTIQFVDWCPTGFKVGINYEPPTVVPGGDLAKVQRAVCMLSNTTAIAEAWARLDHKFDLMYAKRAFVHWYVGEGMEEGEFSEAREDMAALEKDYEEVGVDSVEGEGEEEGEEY
T1 sequence (P02554 whole entry): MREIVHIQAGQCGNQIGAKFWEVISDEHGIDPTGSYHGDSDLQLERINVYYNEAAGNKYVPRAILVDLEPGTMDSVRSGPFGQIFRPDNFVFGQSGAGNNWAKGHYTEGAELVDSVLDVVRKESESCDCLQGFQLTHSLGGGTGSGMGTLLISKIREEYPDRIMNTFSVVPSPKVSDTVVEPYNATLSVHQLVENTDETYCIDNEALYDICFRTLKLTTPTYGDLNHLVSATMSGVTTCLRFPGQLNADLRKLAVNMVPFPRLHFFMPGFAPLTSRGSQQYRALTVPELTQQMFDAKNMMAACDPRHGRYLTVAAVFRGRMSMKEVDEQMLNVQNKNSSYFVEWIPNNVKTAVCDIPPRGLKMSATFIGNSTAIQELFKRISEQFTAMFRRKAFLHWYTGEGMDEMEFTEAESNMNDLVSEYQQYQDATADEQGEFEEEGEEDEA
Excerpt for EGFR kinase: High tech HTScan EGFR kinase assay kits (Cell Signaling Technology, Danvers, MA, USA) were used to measure EGFR kinase activity. The assay was achieved following the manufacturers’ instructions and reported procedures [16, 23].
Description for porcine tubulin protein: Cold porcine tubulin protein (>99% purity) was added to a G-PEM buffer (80 mM PIPES, 2 mM MgCl2, 0.5 mM EGTA, 1 mM GTP, pH 6.9) containing 15% glycerol with or without the identified compounds. […] The absorbance was monitored every minute for 30 min at 340 nm [16, 23].

In turn, `O=C(Nn1c(-c2ccc(F)cc2)nc2ccc(F)cc2c1=O)C1CCCN1` (centres unmarked) [H, N-(6-fluoro-2-(4-fluorophenyl)-4-oxoquinazolin-3(4H)-yl)pyrrolidine-2-carboxamide] gave a melting point of 235 to 237 °C. In addition, in series [1], the “Selectivity Indices S1” value turned out to be 0.11 ± 0.23, the “Cell Line (type of selectivity)” value was “more selective to MCF-7 than MDA-MBA-231; also recorded: MCF-7 selective” and the “Selectivity Indices S2” value is recorded as 9.34 ± 0.02. Further, the IC50 in the series on MDA-MBA-231 (setting [2]) is 12 ± 1.33 µM. Besides, the IC50 in the series on MCF-7 (setting [3]) came to 1.28 ± 0.03 µM.

For the molecule `N[C@@H](CCC(=O)O)C(=O)Nn1c(-c2ccc(F)cc2)nc2ccc(F)cc2c1=O` [Compound E, (S)-4-(6-fluoro-2-(4-fluorophenyl)-4-oxoquinazolin-3(4H)-ylcarbamoyl)-4-aminobutanoic acid], the melting point is 244 to 246 °C. In addition, in series [1], the “Selectivity Indices S1” value came to 28.93 ± 0.08, the “Cell Line (type of selectivity)” value is listed as “more selective to MDA-MBA-231 than MCF-7; also recorded: MDA-MBA-231 selective” and the “Selectivity Indices S2” value turned out to be 0.03 ± 0.11. The molecule also had an IC50 against porcine tubulin protein of 6.24 µM. Besides, the IC50 at EGFR kinase turned out to be 0.54538 ± 4e-05 µM. Further, the IC50 in the series with MDA-MBA-231 (setting [2]) was found to be 0.43 ± 0.02 µM. In addition, the IC50 in the series with MCF-7 (setting [3]) was determined as 12.4 ± 5.73 µM.

With `C#Cc1cccc(Nc2ncnc3cc(OCCOC)c(OCCOC)cc23)c1` [Erlotinib, erlotinib, reference compound], the IC50 with MDA-MBA-231 (48 h) stood at 2.55 ± 0.19 µM; with MCF-7 (MCF7, 48 h) it was 1.14 µM.

As to `CC(C)[C@H](N)C(=O)Nn1c(-c2ccc(F)cc2)nc2ccc(F)cc2c1=O` [C, (S)-2-amino-N-(6-fluoro-2-(4-fluorophenyl)-4-oxoquinazolin-3(4H)-yl)-3-methylbutanamide], the melting point lay within 242 to 244 °C. In addition, in series [1], the “Selectivity Indices S1” value amounted to 0.34 ± 0.18, the “Cell Line (type of selectivity)” value is “more selective to MCF-7 than MDA-MBA-231; also recorded: MCF-7 selective” and the “Selectivity Indices S2” value amounted to 2.98 ± 0.71. Moreover, the IC50 in the series on MDA-MBA-231 (setting [2]) is 3.45 ± 0.21 µM. Besides, in the series on MCF-7 (setting [3]), the IC50 came out at 1.16 ± 0.05 µM.

For the molecule `C[C@H](N)C(=O)Nn1c(-c2ccc(F)cc2)nc2ccc(F)cc2c1=O` [Compound B, (S)-2-amino-N-(6-fluoro-2-(4-fluorophenyl)-4-oxoquinazolin-3(4H)-yl)propanamide], the melting point was in the range of 238 to 240 °C. Also, in series [1], the “Selectivity Indices S1” value worked out at 1.59 ± 0.05, the “Cell Line (type of selectivity)” value is reported as “more selective to MDA-MBA-231 than MCF-7; also recorded: MDA-MBA-231 selective” and the “Selectivity Indices S2” value is given as 0.63 ± 0.23. The IC50 in the series on MDA-MBA-231 (setting [2]) stood at 42.9 ± 2.64 µM. In the series on MCF-7 (setting [3]), the IC50 worked out at 68.5 ± 3.27 µM.

Consider `N[C@@H](Cc1ccccc1)C(=O)Nn1c(-c2ccc(F)cc2)nc2ccc(F)cc2c1=O` [Compound G, (S)-2-amino-N-(6-fluoro-2-(4-fluorophenyl)-4-oxoquinazolin-3(4H)-yl)-3-phenylpropanamide], for which the melting point lay within 245 to 247 °C. In addition, in series [1], the “Selectivity Indices S1” value turned out to be 0.02 ± 0.07, the “Cell Line (type of selectivity)” value is reported as “more selective to MCF-7 than MDA-MBA-231; also recorded: MCF-7 selective” and the “Selectivity Indices S2” value was 56.07 ± 0.15. Moreover, the IC50 at EGFR kinase turned out to be 0.16397 ± 7e-05 µM. Besides, the IC50 with MDA-MBA-231 (setting [2]) came out at 24.7 ± 1.7 µM. For the same molecule, the IC50 with MCF-7 (setting [3]) came out at 0.44 ± 0.01 µM.

Consider `CCC(C)[C@H](N)C(=O)Nn1c(-c2ccc(F)cc2)nc2ccc(F)cc2c1=O` (stereo partly drawn) [D, (2S)-2-amino-N-(6-fluoro-2-(4-fluorophenyl)-4-oxoquinazolin-3(4H)-yl)-3-methylpentanamide], for which the melting point lay in the range of 248 to 250 °C. For the same molecule, in series [1], the “Selectivity Indices S1” value was found to be 1.51 ± 0.24, the “Cell Line (type of selectivity)” value is reported as “more selective to MDA-MBA-231 than MCF-7; also recorded: MDA-MBA-231 selective” and the “Selectivity Indices S2” value was found to be 0.66 ± 0.17. For the same molecule, the IC50 with MDA-MBA-231 (setting [2]) worked out at 7.49 ± 0.42 µM. Besides, the IC50 in the series on MCF-7 (setting [3]) stood at 11.3 ± 1.25 µM.

`NCC(=O)Nn1c(-c2ccc(F)cc2)nc2ccc(F)cc2c1=O` [A, 2-amino-N-(6-fluoro-2-(4-fluorophenyl)-4-oxoquinazolin-3(4H)-yl)acetamide] returned a melting point of 236 to 238 °C. Moreover, in series [1], the “Selectivity Indices S1” value was 1.53 ± 0.12, the “Cell Line (type of selectivity)” value is listed as “more selective to MDA-MBA-231 than MCF-7; also recorded: MDA-MBA-231 selective” and the “Selectivity Indices S2” value was 0.65 ± 0.05. The 50% inhibitory concentration (IC50) in the series with MDA-MBA-231 (setting [2]) amounted to 16.3 ± 1.21 µM. Also, the IC50 in the series on MCF-7 (setting [3]) is 25 ± 1.61 µM.

In turn, `N[C@H](CS)C(=O)Nn1c(-c2ccc(F)cc2)nc2ccc(F)cc2c1=O` [F, (S)-2-amino-N-(6-fluoro-2-(4-fluorophenyl)-4-oxoquinazolin-3(4H)-yl)-3-mercaptopropanamide] gave a melting point of 220 to 222 °C. Moreover, in series [1], the “Selectivity Indices S1” value was 0.15 ± 0.17, the “Cell Line (type of selectivity)” value is given as “more selective to MCF-7 than MDA-MBA-231; also recorded: MCF-7 selective” and the “Selectivity Indices S2” value came to 6.46 ± 0.04. Also, the IC50 in the series with MDA-MBA-231 (setting [2]) was 12.5 ± 5.88 µM. In addition, in the series with MCF-7 (setting [3]), the IC50 was found to be 1.93 ± 0.08 µM.
